Laboratory results from PMC8179336, “Impact of sphingosine and acetylsphingosines on the aggregation and toxicity of metal-free and metal-treated amyloid-β” (Chemical Science, 2020).

Target: T1, amyloid-β (Aβ40) (Homo sapiens, UniProt P05067)
T1 construct: gene APP; Aβ40
Assay: ITC and 2D 1H-15N SOFAST-HMQC NMR (below and above the CAC)
Format: binding

T1 sequence (P05067 672-711 limits assumed): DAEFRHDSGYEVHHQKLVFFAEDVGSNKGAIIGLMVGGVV

| SMILES | ITC and 2D 1H-15N SOFAST-HMQC NMR (below and above the CAC) |
| --- | --- |
| CCCCCCCCCCCCC/C=C/[C@H](OC(C)=O)[C@@H](N)CO [3-O-Ac-SP, (2S,3S,E)-2-amino-1-hydroxyoctadec-4-en-3-yl acetate] | These observations indicate weak and nonspecific interactions of both N-Ac-SP and 3-O-Ac-SP towards Aβ. |
| CCCCCCCCCCCCC/C=C/[C@@H](O)[C@H](CO)NC(C)=O [N-Ac-SP, (2S,3R,4E)-2-(acetylamino)-4-octadecene-1,3-diol] | Interactions between the two acetylsphingosines and Aβ exhibited spontaneous complexation showing an endothermic process |
| CCCCCCCCCCCCC/C=C/[C@@H](O)[C@@H](N)CO [SP, (2S,3R)-2-aminooctadec-4-trans-ene-1,3-diol] | For the association of SP with Aβ, an endothermic isotherm was recorded with negative Gibbs free energy change |
